The assay deals with T1, human MRGPRX2 (Homo sapiens, UniProt Q96LB1).
T1 sequence (Q96LB1 1-330): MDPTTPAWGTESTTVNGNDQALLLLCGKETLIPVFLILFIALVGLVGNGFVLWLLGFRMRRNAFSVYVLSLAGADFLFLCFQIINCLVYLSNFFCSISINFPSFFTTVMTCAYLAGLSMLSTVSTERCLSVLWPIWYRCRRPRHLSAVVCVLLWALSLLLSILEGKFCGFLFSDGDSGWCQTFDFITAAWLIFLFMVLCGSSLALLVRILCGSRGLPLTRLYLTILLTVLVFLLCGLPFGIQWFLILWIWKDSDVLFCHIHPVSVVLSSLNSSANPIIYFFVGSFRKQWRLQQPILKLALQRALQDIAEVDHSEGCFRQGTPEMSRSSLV
As to the kind of experiment: Ca2+ mobilization assay (FLIPR TETRA): inhibition of Cortistatin-14 mediated MRGPRX2 activation. Background: A change in cytosolic calcium serves as a functional read-out for many receptors and channels.

IC50 data for 28 compounds are collected here from patent US11976057B2, “MrgX2 antagonists” (GlaxoSmithKline Intellectual Property Development Limited, priority 2020, dated 2024).

The IC50 is the concentration needed to halve the response being measured. A lower IC50 goes with inhibition by little substance.

A value given as a limit tells only on which side of the number the result lay.

Take `CC(C(=O)Nc1ccc(Cc2cccnc2)cn1)N1CCC(F)(F)[C@@H](c2ccc(=O)[nH]c2)C1` (stereo partly drawn) [Example 45, 2-((S)-4,4-difluoro-3-(6-oxo-1,6-dihydropyridin-3-yl)piperidin-1-yl)-N-(5-(pyridin-3-ylmethyl)pyridin-2-yl)propanamide]: the half-maximal inhibitory concentration (IC50) lay within 3160 to 31600 nM. `C[C@@H](C(=O)Nc1ccc(Oc2ccc(F)cc2F)cn1)N1CCC(F)(F)C(c2cc(C(O)C(F)(F)F)c[n+]([O-])c2)C1` (mixture of isomers) [Example 266, 3-(1-(1-((5-(2,4-difluorophenoxy)pyridin-2-yl)amino)-1-oxopropan-2-yl)-4,4-difluoropiperidin-3-yl)-5-(2,2,2-trifluoro-1-hydroxyethyl)pyridine 1-oxide] had a half-maximal inhibitory concentration (IC50) of 10 to 100 nM.

In turn, `C[C@@H](C(=O)Nc1ccc(Oc2ccc(F)cn2)cn1)N1CCC(F)(F)[C@@H](c2c[nH]c(=O)c(CN)c2)C1` [Example 208, (S)-2-((S)-3-(5-(aminomethyl)-6-oxo-1,6-dihydropyridin-3-yl)-4,4-difluoropiperidin-1-yl)-N-(5-((5-fluoropyridin-2-yl)oxy)pyridin-2-yl)propanamide] registered a concentration for half-maximal inhibition (IC50) of at most 10 nM. The same measure for `CC(C(=O)Nc1ccc(Oc2ncc(F)cc2C#N)cn1)N1CCC(F)(F)[C@@H](c2ccc(=O)[nH]c2)C1` (stereo partly drawn) [Example 92, N-(5-((3-cyano-5-fluoropyridin-2-yl)oxy)pyridin-2-yl)-2-((S)-4,4-difluoro-3-(6-oxo-1,6-dihydropyridin-3-yl)piperidin-1-yl)propanamide]: 10 to 100 nM. `C[C@@H](C(=O)Nc1ccc(OCC2CC2)cn1)N1CCC[C@@H](c2ccc(=O)[nH]n2)C1` (single isomer, unassigned) [Example 185] had an IC50 of 100 to 3160 nM.

Compound `CC(C(=O)Nc1ccc(OCC2CC2(F)F)cn1)N1CCC(F)(F)[C@@H](c2ccc(=O)[nH]c2)C1` (stereo partly drawn) [Example 36, 2-((S)-4,4-difluoro-3-(6-oxo-1,6-dihydropyridin-3-yl)piperidin-1-yl)-N-(5-((2,2-difluorocyclo-propyl)methoxy)pyridin-2-yl)propanamide] had a concentration for half-maximal inhibition (IC50) of 100 to 3160 nM. `C[C@@H](C(=O)Nc1ccc(F)cn1)N1CCC(F)(F)[C@@H](c2c[nH]c(=O)c(CO)c2)C1` [Example 153, (S)-2-((S)-4,4-difluoro-3-(5-(hydroxymethyl)-6-oxo-1,6-dihydropyridin-3-yl)piperidin-1-yl)-N-(5-fluoropyridin-2-yl)propanamide] gave an IC50 of 100 to 3160 nM. On to `C[C@@H](C(=O)Nc1ccc(F)cn1)N1CCC(F)(F)C(c2c[nH]c(=O)c(C(N)C(F)(F)F)c2)C1` (stereo partly drawn) [Example 232, (2S)-2-(3-(5-(1-amino-2,2,2-trifluoroethyl)-6-oxo-1,6-dihydropyridin-3-yl)-4,4-difluoropiperidin-1-yl)-N-(5-fluoropyridin-2-yl)propanamide], for which the concentration for half-maximal inhibition (IC50) is 100 to 3160 nM. Consider `C[C@@H](C(=O)Nc1ccc2ccccc2n1)N1CCC(F)(F)[C@@H](c2ccc(=O)[nH]c2)C1` [Example 54, (S)-2-((S)-4,4-difluoro-3-(6-oxo-1,6-dihydropyridin-3-yl)piperidin-1-yl)-N-(quinolin-2-yl)propanamide], for which the IC50 lay within 100 to 3160 nM. Consider `CC(C(=O)Nc1ccc(Oc2ncc(F)cc2Cl)cn1)N1CCC(F)(F)[C@@H](c2ccc(=O)[nH]c2)C1` (stereo partly drawn) [Example 90, N-(5-((3-chloro-5-fluoropyridin-2-yl)oxy)pyridin-2-yl)-2-((S)-4,4-difluoro-3-(6-oxo-1,6-dihydropyridin-3-yl)piperidin-1-yl)propanamide], for which the IC50 is at most 10 nM. The compound `COc1cccc(Oc2ccc(NC(=O)C(C)N3CCC(F)(F)[C@@H](c4ccc(=O)[nH]c4)C3)nc2)n1` (stereo partly drawn) [Example 95, 2-((S)-4,4-difluoro-3-(6-oxo-1,6-dihydropyridin-3-yl)piperidin-1-yl)-N-(5-((6-methoxypyridin-2-yl)oxy)pyridin-2-yl)propanamide] showed an IC50 of 10 to 100 nM.

Take `C[C@@H](C(=O)Nc1ccc(OCC(C)(C)C)nn1)N1CCC(F)(F)[C@@H](c2ccc(=O)[nH]c2)C1` [Example 89, (S)-2-((S)-4,4-difluoro-3-(6-oxo-1,6-dihydropyridin-3-yl)piperidin-1-yl)-N-(6-(neopenlyloxy)pyridazin-3-yl)propanamide]: the IC50 is 100 to 3160 nM. Regarding `CC(C(=O)Nc1ccc(Oc2ccc(F)cc2)cn1)N1CCC(F)(F)C(c2c[nH]c(=O)c(CN(C)C)c2)C1` (stereo not shown) [Example 230, 2-(3-(5-((dimethylamino)methyl)-6-oxo-1,6-dihydropyridin-3-yl)-4,4-difluoropiperidin-1-yl)-N-(5-(4-fluorophenoxy)pyridin-2-yl)propanamide], the IC50 is 10 to 100 nM.

`C[C@@H](C(=O)Nc1ccc(Oc2ccc(F)cc2F)cn1)N1CCC(F)(F)[C@@H](c2cc[n+]([O-])cc2)C1` [Example 117, 4-((S)-1-((S)-1-((5-(2,4-difluorophenoxy)pyridin-2-yl)amino)-1-oxopropan-2-yl)-4,4-difluoropiperidin-3-yl)pyridine 1-oxide] displayed an IC50 of at most 10 nM. Compound `C[C@@H](C(=O)Nc1ccc(OCC2CC2)nn1)N1CCC(F)(F)[C@@H](c2c[nH]c(=O)c(N)n2)C1` (single isomer, unassigned) [Example 104] showed an IC50 of at most 10 nM. Compound `CC(Oc1ccc(NC(=O)C(C)N2CCC(F)(F)[C@@H](c3ccc(=O)[nH]c3)C2)nc1)C1CC1` (stereo partly drawn) [Example 31, N-(5-(1-cyclopropyl-ethoxy)pyridin-2-yl)-2-((S)-4,4-difluoro-3-(6-oxo-1,6-dihydropyridin-3-yl)piperidin-1-yl)propanamide] gave an IC50 of 100 to 3160 nM.

For the compound `C[C@@H](C(=O)Nc1cnc(Oc2ccc(F)cc2F)cn1)N1CCC(F)(F)[C@@H](c2ccc(=O)[nH]c2)C1` [Example 85, (S)-2-((S)-4,4-difluoro-3-(6-oxo-1,6-dihydropyridin-3-yl)piperidin-1-yl)-N-(5-(2,4-difluorophenoxy)pyrazin-2-yl)propanamide], the half-maximal inhibitory concentration (IC50) was at most 10 nM.

`C[C@@H](C(=O)Nc1ccc(OCC2CC2)nn1)N1CCC(F)(F)C(c2ccc(=O)n(CCS(C)(=O)=O)c2)C1` (stereo partly drawn) [Example 191, (2S)-N-(6-(cyclopropylmethoxy)pyridazin-3-yl)-2-(4,4-difluoro-3-(1-(2-(methylsulfonyl)ethyl)-6-oxo-1,6-dihydropyridin-3-yl)piperidin-1-yl)propanamide] yielded an IC50 of 100 to 3160 nM.

The compound `C[C@@H](C(=O)Nc1ccc(OCC2CC2)cn1)N1CCC(F)(F)[C@@H](c2ccc(=O)n(C)c2)C1` [Example 150, (S)—N-(5-(cyclopropylmethoxy)pyridin-2-yl)-2-((S)-4,4-difluoro-3-(1-methyl-6-oxo-1,6-dihydropyridin-3-yl)piperidin-1-yl)propanamide] came in with a half-maximal inhibitory concentration (IC50) of 10 to 100 nM. The same measure for `C[C@@H](C(=O)Nc1ccc(Cl)cn1)N1CCC[C@@H](c2ccc(=O)n(C)c2)C1` [Example 176, (S)—N-(5-chloropyridin-2-yl)-2-((S)-3-(1-methyl-6-oxo-1,6-dihydropyridin-3-yl)piperidin-1-yl)propanamide]: 3160 to 31600 nM. The compound `CC(C(=O)Nc1ccc(Oc2ccccc2)cn1)N1CCC(F)(F)C(c2c[nH]c(=O)c(N)c2)C1` (stereo not shown) [Example 139, 2-(3-(5-amino-6-oxo-1,6-dihydropyridin-3-yl)-4,4-difluoropiperidin-1-yl)-N-(5-phenoxypyridin-2-yl)propanamide] had a 50% inhibitory concentration (IC50) of 10 to 100 nM. Consider `C[C@@H](C(=O)Nc1ccc(Oc2ccc(F)cc2F)cn1)[C@H]1CCC(F)(F)[C@@H](c2ccc(=O)[nH]c2)C1` [Example 280, (R)-2-((1S,3R)-4,4-difluoro-3-(6-oxo-1,6-dihydropyridin-3-yl)cyclohexyl)-N-(5-(2,4-difluorophenoxy)pyridin-2-yl)propanamide], for which the IC50 was at most 10 nM. `C[C@@H](C(=O)Nc1ccc(Oc2ccc(F)cc2F)cn1)N1CCC(F)(F)C(c2ccnc(C(N)=O)c2)C1` (mixture of isomers) [Example 261, 4-(1-((S)-1-((5-(2,4-difluorophenoxy)pyridin-2-yl)amino)-1-oxopropan-2-yl)-4,4-difluoropiperidin-3-yl)picolinamide] gave an IC50 of at most 10 nM.

`Cc1cc(C2CN([C@@H](C)C(=O)Nc3ccc(F)cn3)CCC2(F)F)cn(CC(F)(F)F)c1=O` (stereo partly drawn) [Example 200, (2S)-2-(4,4-difluoro-3-(5-methyl-6-oxo-1-(2,2,2-trifluoroethyl)-1,6-dihydropyridin-3-yl)piperidin-1-yl)-N-(5-fluoropyridin-2-yl)propanamide] showed an IC50 of 3160 to 31600 nM. `C[C@@H](C(=O)Nc1ccc(Oc2ccc(F)cc2F)cn1)N1CCC(F)(F)[C@@H](c2c[nH]c(=O)c([C@H](N)C(F)(F)F)c2)C1` (single isomer, unassigned) [Example 235] had an IC50 of at most 10 nM.

As to `C[C@@H](C(=O)Nc1ccc(C2CCC2)cn1)N1CCC(F)(F)[C@@H](c2ccc(=O)[nH]c2)C1` [Example 18, (S)-N-(5-cyclobutylpyridin-2-yl)-2-((S)-4,4-difluoro-3-(6-oxo-1,6-dihydropyridin-3-yl)piperidin-1-yl)propanamide], the IC50 is 100 to 3160 nM.

As for `C[C@@H](C(=O)Nc1ccc(Oc2ccc(F)cc2)cn1)N1CCC(F)(F)[C@@H](c2cc[n+]([O-])cc2)C1` [Example 114, 4-((S)-4,4-difluoro-1-((S)-1-((5-(4-fluorophenoxy)pyridin-2-yl)amino)-1-oxopropan-2-yl)piperidin-3-yl)pyridine 1-oxide], the concentration for half-maximal inhibition (IC50) is at most 10 nM. `CC(C(=O)Nc1ccc(CCC2CC2)cn1)N1CCC(F)(F)[C@@H](c2ccc(=O)[nH]c2)C1` (stereo partly drawn) [Example 21, N-(5-(2-cyclopropylethyl)pyridin-2-yl)-2-((S)-4,4-difluoro-3-(6-oxo-1,6-dihydropyridin-3-yl)piperidin-1-yl)propanamide] yielded an IC50 of 10 to 100 nM.
